For the test, the target named is recombinant human NF-kappaB-inducing kinase (NIK/MAP3K14) (Homo sapiens, UniProt Q99558). Kind of test: Biological Assay B: inhibition of auto-phosphorylation of recombinant human NIK/MAP3K14 (AlphaScreen), performed at 2 locations. Conditions: averaged values. The format is biochemical. The procedure: Inhibition of Auto-Phosphorylation of Recombinant Human NF-kappaB-Inducing Kinase (NIK/MAP3K14) Activity (AlphaScreen®)
NIK/MAP3K14 auto-phosphorylation activity was measured using the AlphaScreen® (αscreen) format (Perkin Elmer). All compounds tested were dissolved in dimethyl sulfoxide (DMSO) and further dilutions were made in assay buffer. Final DMSO concentration was 1% (v/v) in assays. Assay buffer was 50 mM Tris pH 7.5 containing 1 mM EGTA (ethylene glycol tetraacetic acid), 1 mM DTT (dithiothreitol), 0.1 mM Na3VO4, 5 mM MgCl2, 0.01% Tween® 20. Assays were carried out in 384 well Alphaplates (Perkin Elmer). Incubations consisted of compound, 25 microM Adenosine-5′-triphosphate (ATP), and 0.2 nM NIK/MAP3K14. Incubations were initiated by addition of GST-tagged NIK/MAP3K14 enzyme, carried out for 1 h at 25° C. and terminated by addition of stop buffer containing anti-phospho-IKK Ser176/180 antibody. Protein A Acceptor and Glutathione-Donor beads were added before reading using an EnVision® Multilabel Plate Reader (Perkin Elmer). Signal obtained in the wells containing blank samples was subtracted from all other wells and IC50's were determined by fitting a sigmoidal curve to % inhibition of control versus Log10 compound concentration.
Assay B was performed at 2 different locations.
Data for the compounds of the invention in the above assays are provided in Table A (the values in Table are averaged values over all measurements on all batches of a compound; values as IC50 (nM)). (‘n.c.’ means not calculated: ‘Co.’ means compound)
(In general: Bead proximity is the source of the signal in Alpha formats.)

Where [1] appears, read: location 1, AlphaScreen auto-phosphorylation, read-out: Assay B location 1 IC50.
Setting [2] is: location 2, AlphaScreen auto-phosphorylation, read-out: Assay B location 2 IC50.
Where [3] appears, read: location 2, NIK auto-phosphorylation, AlphaScreen, read-out: Assay B location 2 IC50.

This note sets out measurements from US11236084B2, “Substituted azaindoline derivatives as NIK inhibitors” (Janssen Pharmaceutica NV, priority 2017, dated 2022).

Like-named read-outs stand apart in the source and are kept apart here.

Sequence of recombinant human NF-kappaB-inducing kinase (NIK/MAP3K14) (Q99558 whole entry): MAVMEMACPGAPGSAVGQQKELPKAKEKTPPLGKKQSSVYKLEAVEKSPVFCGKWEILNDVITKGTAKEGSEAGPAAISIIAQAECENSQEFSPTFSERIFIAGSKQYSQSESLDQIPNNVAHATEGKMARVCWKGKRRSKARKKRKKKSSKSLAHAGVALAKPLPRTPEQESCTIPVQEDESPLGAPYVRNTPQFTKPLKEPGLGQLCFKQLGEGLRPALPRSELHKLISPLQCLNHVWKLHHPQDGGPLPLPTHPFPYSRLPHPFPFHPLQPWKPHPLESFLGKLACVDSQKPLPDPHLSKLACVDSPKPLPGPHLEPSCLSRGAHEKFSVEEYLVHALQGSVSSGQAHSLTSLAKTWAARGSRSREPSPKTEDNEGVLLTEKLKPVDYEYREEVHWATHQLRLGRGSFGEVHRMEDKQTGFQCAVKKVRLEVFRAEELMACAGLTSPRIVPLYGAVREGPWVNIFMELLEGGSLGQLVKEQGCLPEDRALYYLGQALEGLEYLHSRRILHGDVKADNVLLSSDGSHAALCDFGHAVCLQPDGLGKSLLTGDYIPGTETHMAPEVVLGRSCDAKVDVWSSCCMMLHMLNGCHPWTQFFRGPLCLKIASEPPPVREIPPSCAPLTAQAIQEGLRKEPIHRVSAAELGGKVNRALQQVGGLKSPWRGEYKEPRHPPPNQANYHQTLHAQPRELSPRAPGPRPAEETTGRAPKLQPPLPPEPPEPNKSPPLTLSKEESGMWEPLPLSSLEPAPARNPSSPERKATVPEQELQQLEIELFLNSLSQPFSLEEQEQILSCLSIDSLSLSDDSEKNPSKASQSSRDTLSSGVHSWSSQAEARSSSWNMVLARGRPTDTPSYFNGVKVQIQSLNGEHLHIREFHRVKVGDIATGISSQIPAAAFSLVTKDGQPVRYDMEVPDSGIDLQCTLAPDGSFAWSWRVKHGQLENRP

One may read the IC50 as the concentration needed to halve the response being measured. In the case of `COc1ccc(N2CCOCC2)cc1Nc1nccc(-c2cnc3c(c2)C(C)(CO)CN3)n1` (stereo not shown) [Compound 241], the IC50 reads like this: under setting [1], 1860 nM; under setting [2], approximately 3090 nM.
`COc1cc(Nc2nccc(-c3cnc4c(c3)C(C)(CO)CN4)n2)ccc1-c1cnn(C)c1` (stereo not shown) [Compound 188]: under setting [2], the half-maximal inhibitory concentration (IC50) was 5.5 nM.
Still for that read-out and setting: under `COc1cc(N2CCN(C)CC2)ccc1Nc1nccc(-c2cnc3c(c2)C(C)(CO)CN3)n1` (stereo not shown) [Compound 187] stands 18.2 nM.
Consider `COc1cc(N2CC(C)(C)C2)c(Cl)cc1Nc1nccc(-c2cnc3c(c2)C(C)(CO)CN3)n1` (stereo not shown) [Compound 304], for which the IC50 under setting [1] is 18.2 nM and the concentration for half-maximal inhibition (IC50) under setting [2] was 5.9 nM.
With `COc1cc(-n2cnc(C)c2)ccc1Nc1nccc(-c2cnc3c(c2)C(C)(CO)CN3)n1` (stereo not shown) [Compound 202], the half-inhibitory concentration (IC50) under setting [2] was 26.9 nM.
Take `COc1cc(N2CCN(C3CC3)CC2)c(Cl)cc1Nc1nccc(-c2cnc3c(c2)C(C)(CO)CN3)n1` (stereo not shown) [Compound 309]: the half-maximal inhibitory concentration (IC50) reads like this: under setting [1], 6.8 nM; under setting [2], 2.2 nM.
With `COc1cc(C(=O)N2CCCCC2)ccc1Nc1nccc(-c2cnc3c(c2)C(C)(CO)CN3)n1` (single isomer, unassigned) [Compound 157], the IC50 under setting [2] was determined as 63.1 nM.
In the case of `COc1cc(N2CCC(C#N)CC2)ccc1Nc1nccc(-c2cnc3c(c2)C(C)(CO)CN3)n1` (stereo not shown) [Compound 215], the IC50 under setting [2] turned out to be 12.9 nM.
In the case of `Cc1cc(N2CCOCC2)c(Cl)cc1Nc1nccc(-c2cnc3c(c2)C(C)(CO)CN3)n1` (single isomer, unassigned) [Compound 257], the concentration for half-maximal inhibition (IC50) under setting [1] is 3 nM and the IC50 under setting [2] turned out to be 3.4 nM.
`COCc1ccc(Nc2nccc(-c3cnc4c(c3)C(C)(CO)CN4)n2)c(OC)c1` (stereo not shown) [Compound 166]: the half-maximal inhibitory concentration (IC50) under setting [2] turned out to be 18.2 nM.
In the case of `CCN1CCN(c2cc(OC)c(Nc3nccc(-c4cnc5c(c4)C(C)(CO)CN5)n3)cc2C)CC1` (stereo not shown) [Compound 318], the concentration for half-maximal inhibition (IC50) by setting is: under setting [1], 4.9 nM; under setting [2], 1.5 nM.
On to `CCC1(CCO)CNc2ncc(-c3ccnc(Nc4ccc(C(=O)N5CCC(OC)CC5)cc4OC)n3)cc21` (stereo not shown) [Compound 159], for which the half-inhibitory concentration (IC50) under setting [2] is 12.6 nM.
Consider `CN(C)CCOc1cc(N2CCOCC2)c(Cl)cc1Nc1nccc(-c2cnc3c(c2)C(C)(CO)CN3)n1` (stereo not shown) [Compound 371], for which the IC50 was found to be 437 nM under setting [1] and 209 nM under setting [2].
The matching figures for `COc1cc(N2CC3(CCOCC3)C2)c(Cl)cc1Nc1nccc(-c2cnc3c(c2)C(C)(CO)CN3)n1` (stereo not shown) [Compound 3]: 10 nM and 2.2 nM.
For the compound `COCCN1CCN(c2cc(OC)c(Nc3nccc(-c4cnc5c(c4)C(C)(CO)CN5)n3)cc2Cl)CC1` (stereo not shown) [Compound 311], the IC50 reads like this: under setting [1], 3.9 nM; under setting [2], 0.9 nM.
On to `CNC(=O)c1ccc(C)c(Nc2nccc(-c3cnc4c(c3)C(C)(CO)CN4)n2)c1` (stereo not shown) [Compound 219], for which, under setting [2], the concentration for half-maximal inhibition (IC50) was 61.7 nM.
On to `COc1cc(C(=O)N2CCC(OC)C2)c(Cl)cc1Nc1nccc(-c2cnc3c(c2)C(C)(CO)CN3)n1` (stereo not shown) [Compound 290], for which the IC50 runs as follows: under setting [1], 3.1 nM; under setting [2], 1.4 nM.
As to `COc1cc(N2CCOCC2)c(F)cc1Nc1nccc(-c2cnc3c(c2)C(C)(CO)CN3)n1` (stereo not shown) [Compound 243], the IC50 under setting [2] was found to be 10 nM.
In the case of `CC(=O)Nc1ccc(C)c(Nc2nccc(-c3cnc4c(c3)C(C)(CO)CN4)n2)c1` (stereo not shown) [Compound 211], under setting [2], the IC50 is 49 nM.
For `CCN1CCN(c2cc(OC)c(Nc3nccc(-c4cnc5c(c4)C(C)(CO)CN5)n3)cc2C#N)CC1` (stereo not shown) [Compound 279], under setting [2], the IC50 came to 2.7 nM.
Turning to `CCN1CCN(Cc2cc(OC)c(Nc3nccc(-c4cnc5c(c4)C(C)(CO)CN5)n3)cc2Cl)CC1` (stereo not shown) [Compound 337], the IC50 under setting [3] turned out to be 1.6 nM.
As for `COc1cc(-c2cnn(C)c2)ccc1Nc1nccc(-c2cnc3c(c2)C(C)(CO)CN3)n1` (stereo not shown) [Compound 169], the IC50 under setting [2] came out at 8.9 nM.
Same read-out and setting: the value for `CC1(CO)CNc2ncc(-c3ccnc(Nc4ccccc4Br)n3)cc21` (stereo not shown) [Compound 176] was 12.6 nM; that for `COc1ccc(C)cc1Nc1nccc(-c2cnc3c(c2)C(C)(CO)CN3)n1` (stereo not shown) [Compound 184] was 3.4 nM.
`COc1cc(N2CC3(CCOCC3)C2)c(F)cc1Nc1nccc(-c2cnc3c(c2)C(C)(CO)CN3)n1` (single isomer, unassigned) [Compound 7R]: the IC50 runs as follows: under setting [1], 70.8 nM; under setting [2], 19.1 nM.
`COc1ccc(CO)cc1Nc1nccc(-c2cnc3c(c2)C(C)(CO)CN3)n1` (stereo not shown) [Compound 204]: under setting [2], the 50% inhibitory concentration (IC50) was 10.7 nM.
With `COc1cc(Cl)ccc1Nc1nccc(-c2cnc3c(c2)C(C)(CO)CN3)n1` (stereo not shown) [Compound 172], the IC50 is, setting by setting: under setting [1], 75.9 nM; under setting [2], 71.6 nM.
For `CCN1CCN(c2cc(OC)c(Nc3nccc(-c4cnc5c(c4)C(C)(CO)CN5)n3)cc2Cl)CC1` (single isomer, unassigned) [Compound 293], in that order: 1.5 nM and 0.5 nM.
For `CCN1CCN(c2cc(OC)c(Nc3nccc(-c4cnc5c(c4)C(C)(C)CN5)n3)cc2Cl)CC1` [Compound 329], in that order: 3.8 nM and 1.7 nM.
Turning to `COc1cc(C(=O)NC(C)(C)CO)ccc1Nc1nccc(-c2cnc3c(c2)C(C)(CO)CN3)n1` (stereo not shown) [Compound 160], under setting [2], the IC50 amounted to 18.6 nM.
In the case of `COCCN1CC(c2cc(OC)c(Nc3nccc(-c4cnc5c(c4)C(C)(CO)CN5)n3)cc2Cl)C1` (stereo not shown) [Compound 321], the IC50 is, setting by setting: under setting [1], 3.6 nM; under setting [2], 1.6 nM.
Take `CCc1ccccc1Nc1nccc(-c2cnc3c(c2)C(C)(CO)CN3)n1` (stereo not shown) [Compound 167]: the half-maximal inhibitory concentration (IC50) under setting [2] amounted to 19.1 nM.
As for `CN(C)CCOc1cc(N2CCOCC2)c(F)cc1Nc1nccc(-c2cnc3c(c2)C(C)(CO)CN3)n1` (stereo not shown) [Compound 370], the IC50 under setting [1] worked out at 1620 nM and the IC50 under setting [2] is 977 nM.
With `COc1cc(N2CCN(C)CC2)c(C#N)cc1Nc1nccc(-c2cnc3c(c2)C(C)(CO)CN3)n1` (stereo not shown) [Compound 280], the IC50 by setting is: under setting [1], 6.9 nM; under setting [2], 2.5 nM.
Take `CC1(CO)CNc2ncc(-c3ccnc(Nc4ccccc4Cl)n3)cc21` (stereo not shown) [Compound 178]: the IC50 under setting [2] came out at 14.1 nM.
Same read-out and setting: the value for `COc1cc(CN2CCOCC2)ccc1Nc1nccc(-c2cnc3c(c2)C(C)(CO)CN3)n1` (stereo not shown) [Compound 165] was 23.4 nM; that for `COc1cc(OCCN2CCOCC2)ccc1Nc1nccc(-c2cnc3c(c2)C(C)(CO)CN3)n1` (stereo not shown) [Compound 218] was 15.1 nM.
Take `COc1cc(OCCN2CCOCC2)c(Cl)cc1Nc1nccc(-c2cnc3c(c2)C(C)(CO)CN3)n1` (stereo not shown) [Compound 340]: the IC50 under setting [3] was 2.6 nM.
As to `CC1(CO)CNc2ncc(-c3ccnc(Nc4cc(C#N)c(N5CCOCC5)cc4Cl)n3)cc21` (single isomer, unassigned) [Compound 259], the IC50 came to 3.6 nM under setting [1] and 3.8 nM under setting [2].
As to `COc1cc(N2CCOCC2)c(Cl)cc1Nc1nccc(-c2cnc3c(c2)C(C)(CO)CN3)n1` (single isomer, unassigned) [Compound 6R], the IC50 reads like this: under setting [1], 19.1 nM; under setting [2], 27.7 nM.
Turning to `[2H]C([2H])([2H])c1ccccc1Nc1nccc(-c2cnc3c(c2)C(C)(CO)CN3)n1` (stereo not shown) [Compound 234], the IC50 runs as follows: under setting [1], 61.7 nM; under setting [2], 38.9 nM.
`COc1cc(CO)c(Cl)cc1Nc1nccc(-c2cnc3c(c2)C(C)(CO)CN3)n1` (stereo not shown) [Compound 332]: under setting [2], the IC50 turned out to be 1.1 nM.
For the compound `COc1cc(CO)c(Cl)cc1Nc1nccc(-c2cnc3c(c2)C(C)(C)CN3)n1` [Compound 339], the IC50 under setting [3] is 5.6 nM.
Take `COc1ccc(F)cc1Nc1nccc(-c2cnc3c(c2)C(C)(CO)CN3)n1` (stereo not shown) [Compound 182]: the half-maximal inhibitory concentration (IC50) under setting [2] was 3 nM.
In the case of `COc1cc(-c2ccn(C)n2)ccc1Nc1nccc(-c2cnc3c(c2)C(C)(CO)CN3)n1` (stereo not shown) [Compound 192], under setting [2], the half-inhibitory concentration (IC50) came out at 26.9 nM.
Still for that read-out and setting: the value for `CNC(=O)c1ccc(Nc2nccc(-c3cnc4c(c3)C(C)(CO)CN4)n2)c(OC)c1` (stereo not shown) [Compound 152] was 11.2 nM; that for `COc1cc(N2CCC(C#N)CC2)c(Cl)cc1Nc1nccc(-c2cnc3c(c2)C(C)(CO)CN3)n1` (stereo not shown) [Compound 245] was 3.6 nM; that for `COc1cc(OC2CCN(C)CC2)ccc1Nc1nccc(-c2cnc3c(c2)C(C)(CO)CN3)n1` (stereo not shown) [Compound 228] was 26.3 nM.
Regarding `COc1ccc(C2CC2)cc1Nc1nccc(-c2cnc3c(c2)C(C)(CO)CN3)n1` (stereo not shown) [Compound 195], under setting [2], the half-maximal inhibitory concentration (IC50) was 49 nM.
The same measure, in the same setting: under `CC1(CO)CNc2ncc(-c3ccnc(Nc4ccccc4F)n3)cc21` (stereo not shown) [Compound 177] stands 32.4 nM.
Regarding `COc1ccc(C#N)cc1Nc1nccc(-c2cnc3c(c2)C(C)(CO)CN3)n1` (stereo not shown) [Compound 190], the IC50 under setting [2] is 2.2 nM.
Take `Cc1ccc(Cl)cc1Nc1nccc(-c2cnc3c(c2)C(C)(CO)CN3)n1` (stereo not shown) [Compound 199]: the IC50 under setting [2] was 4.5 nM.
Regarding `COc1cc(-c2cncn2C)ccc1Nc1nccc(-c2cnc3c(c2)C(C)(CO)CN3)n1` (stereo not shown) [Compound 170], the IC50 was 45.7 nM under setting [1] and 27.6 nM under setting [2].
The matching figures for `COc1cc(N2CC(OC)C2)c(F)cc1Nc1nccc(-c2cnc3c(c2)C(C)(CO)CN3)n1` (stereo not shown) [Compound 270]: 21.4 nM and 5.8 nM.
With `COc1cc(CCN2CCOCC2)ccc1Nc1nccc(-c2cnc3c(c2)C(C)(CO)CN3)n1` (stereo not shown) [Compound 194], the IC50 under setting [2] was 21.9 nM.
